Reference: patent US20180207228A1, “PEPTIDE COMBINATIONS AND USES THEREOF FOR TREATING GRASS ALLERGY” (ALK-Abelló A/S, priority 2015, published 2018)
Where no end group is shown, it is not given here.

Legend:
Type in all cases: cell-based, human
[1] = tested on: allergen specific T cells; experiment: T cell proliferation assay (72 h) on donor derived T cell lines (TCL02/TCL03); conditions: for Proliferation % donor coverage (TCL-02 DK1): T cell lines TCL-02 DK1, 30 donors, hit criteria SI>=2, CPM>=1000; for Proliferation strength (TCL-02 DK1): T cell lines TCL-02 DK1, strength of response (average relative magnitude)
Procedure, shortened: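 Overlapping 20-mer and selected 15-mer grass allergen peptides were screened for proliferation using TCL02 (day 24) or TCL03 (day 34) lines. Lines came from grass-allergic donors' CD8-depleted PBMCs, primed with natural allergen mix and expanded with irradiated autologous or allogeneic APCs, PHA-P 0.5 μg/ml and rIL-2.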

[2] = tested on: release of IL-5 upon T cell activation; experiment: Fluorospot assay, IL-5 release (DK1-TCL01, US1-TCL01); conditions: head prints TCL-02 DK1; text: 25 TCL-01 DK1 lines
Procedure, shortened: (§1)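 A peptide counted as a hit at ≥20 SFC/10^6 cells, stimulation index ≥2 over medium, and p and Poisson ≤0.05. Cells came from TCL01 lines, raised from allergic donors' CD8-depleted PBMCs over 14 days of natural-allergen stimulation with IL-2. They were exposed to 2 μg/ml peptide or peptide mix for 20 h at 37° C.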

[3] = tested on: release of IFN-γ upon T cell activation; experiment: Fluorospot assay, IFN-γ release (DK1-TCL01, US1-TCL01); conditions: head prints TCL-02 DK1; 17 TCL-01 DK1 lines
Procedure, shortened: as §1

| Substance | Proliferation % donor coverage (TCL-02 DK1) [1] | Proliferation strength (TCL-02 DK1) [1] | IL-5-Fluorospotr % donor coverage (TCL-02 DK1) [2] | IFN-gamma % donor coverage (TCL-02 DK1) [3] |
| --- | --- | --- | --- | --- |
| LVKYVNGDGDVVAVDIKEKG-OH [compound 9] | 26.67% | 1.60 | 20.00% | 8.00% |
| PFDGMTASGNEPIFKDGLGS-OH [compound 94] | 16.67% | 2.90 | 4.00% | 4.00% |
| PMKSSWGAIWRIDPKKPLKG-OH [compound 108] | 33.33% | 4.10 | 4.00% | 0.00% |
| PYVSKNPRQAYANYRDIDLG-OH [compound 56] | 20.00% | 3.10 | 0.00% | 4.00% |
| RASYEIKSKEPVESSGEPVL-OH [compound 96] | 6.67% | 0.60 | 0.00% | 0.00% |
| RFLTEKGMKNVFDDVVPEKY-OH [compound 34] | 6.67% | 0.60 | 4.00% | 0.00% |
| RGAAPDDHGGASGYKDVDKP-OH [compound 92] | 3.33% | 0.60 | 0.00% | 0.00% |
| RIIAGTLEVHAVKPAAEEVK-OH [compound 80] | 30.00% | 4.40 | 0.00% | 0.00% |
| RNEVVNDVSTYASGKVWGQK-OH [compound 57] | 16.67% | 2.00 | 4.00% | 4.00% |
| RNVFDEVIPTAFKIGKTYTP-OH [compound 44] | 20.00% | 1.40 | 0.00% | 0.00% |
| SKYPSGTKITFHIEKGSNDH-OH [compound 103] | 36.67% | 6.50 | 8.00% | 4.00% |
| SMGDDHFWAVRGGGGESFGI-OH [compound 49] | 40.00% | 5.60 | 20.00% | 12.00% |
| TALKKAITAMSEAQKAAKPA-OH [compound 85] | 20.00% | 2.80 | 4.00% | 0.00% |
| TATYGSKWLEARATFYGSNP-OH [compound 90] | 26.67% | 3.50 | 12.00% | 4.00% |
| TDDNEEPIAPYHFDLSGHAF-OH [compound 4] | 40.00% | 6.40 | 28.00% | 4.00% |
| TKGKVDPTDYFRNEQSIPPL-OH [compound 60] | 13.33% | 2.60 | 0.00% | 0.00% |
| TKKGNVWEVKSSKPLVGPFN-OH [compound 38] | 50.00% | 6.60 | 24.00% | 4.00% |
| TPDKLTGPFTVRYTTEGGTK-OH [compound 26] | 13.33% | 2.00 | 24.00% | 4.00% |
| TPFPHRKGVLFNIQYVNYWF-OH [compound 50] | 43.33% | 6.70 | 28.00% | 8.00% |
| TSAVGAATGAATAATGGYKV-OH [compound 88] | 0.00% | 0.00 | 0.00% | 0.00% |
| TSKLDAAYKLAYKTAEGATP-OH [compound 65] | 30.00% | 5.70 | 4.00% | 4.00% |
| VFDDVVPEKYTIGATYAPEE-OH [compound 35] | 13.33% | 0.70 | 0.00% | 0.00% |
| VKYEGDTMAEVELREHGSDE-OH [compound 32] | 6.67% | 0.20 | 0.00% | 0.00% |
| VPKVTFTVEKGSNEKHLAVL-OH [compound 30] | 3.33% | 0.40 | 0.00% | 0.00% |
| VRYTTEGGTKTEAEDVIPEG-OH [compound 12] | 23.33% | 7.00 | 8.00% | 8.00% |
| VVAVDIKEKGKDKWIELKES-OH [compound 25] | 20.00% | 1.10 | 4.00% | 8.00% |
